Data as given in patent US4859668A, “Method of inhibiting the growth of melanin-pigmented cells” (North Carolina State University, priority 1988, dated 1989).
Where two headings read alike, the source gives them in different places.

Assays:
S91 melanoma [1] = assay: Effects of Various Cyclic Amines on Growth of Pigmented Melanoma Cells (Table III), S91; type: cell-based, mouse; settings: for inhibition at 13800 µM: Mus musculus, read-out: Percent Inhibition, S91 melanoma
Description: (§1) Pigmented S91 melanoma and unpigmented L929 fibroblast cells were treated with various cyclic amines at a concentration of 13.8 mM as described in Example 1 above.

melanin-pigmented cells = assay: In vitro selective inhibition of melanin-pigmented cells, effective dosage/time regimens; type: cell-based
L929 fibroblast [2] = assay: Effects of Various Cyclic Amines on Growth of Pigmented Melanoma Cells (Table III), L929; type: cell-based, mouse; settings: for inhibition at 13800 µM: Mus musculus, read-out: Percent Inhibition, L929 fibroblast
Description: as §1

HFH-LP [3] = assay: Effect of Cyclic Amines on Growth Rate of Pigmented Melanoma (Table I), HFH-LP; type: cell-based, mouse
Description: (§3) These cell cultures include low passage HFH (HFH-LP), a pigmented line derived from the B-16 mouse melanoma, and NP, an amelanotic clone of HFH-LP. […] These cells were maintained as monolayers in Corning plastic flasks in Minimum Essential Medium (Eagle) with Earle's salts supplemented with 10% fetal bovine serum, 100 units of penicillin, 100 mg of streptomycin and 5 mg of amphotericin B per ml in 5% CO2 humidified air at 37° C.
(§4) Prior to dose-response studies, single cell suspensions were prepared in medium following trypsinization and inoculated into Falcon Multiwell plates (2 cm^2 wells) at 3.5×10^4 cells per 0.5 ml of medium. Cultures were maintained for 24 hours before exposure.
(§5) This stock solution was used to prepare test concentrations of the drug in culture medium. […] Cells were exposed to each of these concentrations by adding 0.5 ml of each of the solutions to triplicate test wells and incubating the cells under exposure at 37° C. for 1 hour. […] Cells were harvested after 48 hours and counted with a hemacytometer.

HFH-LP [4] = assay: Effect of Cyclic Amines on Survival of Pigmented Melanoma (Table II), HFH-LP; settings: Mus musculus, 24 h, read-out: percentage dead, HFH-LP
Description: (§6) These cells were maintained as monolayers in Corning plastic flasks in Minimum Essential Medium (Eagle) with Earle's salts supplemented with 10% fetal bovine serum, 100 units of penicillin, 100 mg of streptomycin and 5 mg of amphotericin B per ml in 5% CO2 humidified air at 37° C.
as §4, §5

NP [5] = assay: cells; settings: Mus musculus, 1.5 h, read-out: Effect on Growth Rate (inhibition), NP
Description: as §3, §4, §5

in vitro = settings: mouse, l929 cells
Description: as §6, §4, §5

[6] = tested on: S91 (Cloudman S91 mouse melanoma); assay: Effect of Cyclic Amines on Survival of Pigmented Melanoma (Table II), S91; settings: 24 h, read-out: percentage dead, S91
Description: as §6, §4, §5

HFH-HP = assay: cells; settings: Mus musculus, read-out: Growth inhibition, Theo. Alone vs. control
Description: (§7) These cell cultures include low passage HFH (HFH-LP), a pigmented line derived from the B-16 mouse melanoma, and NP, an amelanotic clone of HFH-LP. High passage HFH (HFH-HP) was derived from HFH-LP after 30 passages in vitro. […] These cell cultures further include Cloudman S91 mouse melanoma, RPMI 1846 (a Syrian hamster melanoma), baby hamster kidney (BHK) and Chinese hamster ovary (CHO). These cells were maintained as monolayers in Corning plastic flasks in Minimum Essential Medium (Eagle) with Earle's salts supplemented with 10% fetal bovine serum, 100 units of penicillin, 100 mg of streptomycin and 5 mg of amphotericin B per ml in 5% CO2 humidified air at 37° C.
(§8) Single cell suspensions were prepared as described above. Twenty-four hours after seeding, the cells were exposed to either (a) culture medium alone, or (b) culture medium containing 0.5 mM theophylline.
(§9) The values given are the mean from 6 replicates.

BHK = assay: cells; settings: Mesocricetus auratus, read-out: Growth inhibition, Theo. Alone vs. control
Description: as §7, §8, §9

[7] = tested on: Unpigmented NP, CHO and mouse fibroblast L929 cells; assay: Enhancement of toxicity by theophylline pretreatment, unpigmented cells; type: cell-based, mouse; Chinese hamster
Description: Twenty-four hours after seeding, the cells were exposed to either (a) culture medium alone, or (b) culture medium containing 0.5 mM theophylline.

RPMI-1641 [8] = settings: lightly pigmented RPMI 1641
Description: as §7, §8, §9

HFH-LP and HFH-HP = assay: Pigmentation and growth of cells exposed to theophylline, HFH-LP and HFH-HP; type: cell-based, mouse; settings: theophylline exposure
Description: as §8

HFH-LP [9] = assay: cells; settings: Mus musculus, read-out: Growth inhibition, Theo. Alone vs. control
Description: as §7, §8, §9

L929 = assay: cells; settings: Mus musculus, L929, read-out: Growth inhibition, Theo. Alone vs. control
NP [10] = assay: cells; settings: Mus musculus, read-out: Growth inhibition, Theo. Alone vs. control
Description: as §7, §8, §9

RPMI-1641 [11] = assay: cells; settings: read-out: Growth inhibition, Theo. Alone vs. control
Description: as §7, §8, §9

RPMI 1946 cells = assay: Pigmentation and growth of cells exposed to theophylline, RPMI 1946; type: cell-based, Syrian hamster; settings: theophylline exposure
Description: as §8

L929 fibroblast [12] = assay: Effect of High Dose Exposure to Piperidino 1,2-Propanediol (Table V), L929; type: cell-based, mouse; settings: 30 min. exposure
Text: (§2) Pigmented S91 melanoma and nonpigmented L929 fibroblast cells were exposed to high doses of piperidino 1,2-propanediol.

S91 melanoma [13] = assay: Effect of High Dose Exposure to Piperidino 1,2-Propanediol (Table V), S91; type: cell-based, mouse; settings: 30 min. exposure
Text: as §2

[14] = S91, 1 Hour Exposure to 13.8 mM
[15] = L929, 1 Hour Exposure to 13.8 mM

**Q.** For CN1CCN(C)CC1 [1,4-dimethylpiperazine], which inhibition at 13800 µM (S91 melanoma [1]; [14]) is on record?
**A.** The inhibition at 13800 µM was 99%.

**Q.** And the “in vitro effectiveness of dosage/time regimen” value (melanin-pigmented cells; 13.8 mM for 1 hour)?
**A.** Its value is “effective in vitro for inhibiting the growth of melanin-pigmented cells with little or no effect upon unpigmented cells”.

**Q.** And the inhibition at 13800 µM (L929 fibroblast [2]; [15])?
**A.** Its inhibition at 13800 µM is 0%.

**Q.** With CN1CCNCC1 [1-methylpiperazine] as the compound, how does the inhibition at 13800 µM (S91 melanoma [1]; [14]) read?
**A.** The inhibition at 13800 µM was 99%.

**Q.** What about the “in vitro effectiveness of dosage/time regimen” value (melanin-pigmented cells; 13.8 mM for 1 hour) of the same compound?
**A.** The value was “effective in vitro for inhibiting the growth of melanin-pigmented cells with little or no effect upon unpigmented cells”.

**Q.** What about the inhibition at 13800 µM (L929 fibroblast [2]; [15]) of the same compound?
**A.** The inhibition at 13800 µM was 0%.

**Q.** Which results are given for CN1CCCCC1 [1-methylpiperidine]?
**A.** inhibition at 13800 µM (S91 melanoma [1]; [14]): 99%; in vitro effectiveness of dosage/time regimen (melanin-pigmented cells; 13.8 mM for 1 hour): effective in vitro for inhibiting the growth of melanin-pigmented cells with little or no effect upon unpigmented cells; inhibition at 13800 µM (L929 fibroblast [2]; [15]): 4%

**Q.** For CC1CNC(C)CN1 (stereo not shown) [2,5-dimethylpiperazine], which inhibition at 13800 µM (S91 melanoma [1]; [14]) is on record?
**A.** Its inhibition at 13800 µM is 97%.

**Q.** And the “in vitro effectiveness of dosage/time regimen” value (melanin-pigmented cells; 13.8 mM for 1 hour)?
**A.** Its value is “effective in vitro for inhibiting the growth of melanin-pigmented cells with little or no effect upon unpigmented cells”.

**Q.** And the inhibition at 13800 µM (L929 fibroblast [2]; [15])?
**A.** The inhibition at 13800 µM was 0%.

**Q.** Which inhibition at 13800 µM (S91 melanoma [1]; [14]) does the source give for c1cc(N2CCCCC2)ccn1 [4-piperidinopyridine] here?
**A.** Its inhibition at 13800 µM is 99%.

**Q.** What about the “in vitro effectiveness of dosage/time regimen” value (melanin-pigmented cells; 13.8 mM for 1 hour) of the same compound?
**A.** Its value is “effective in vitro for inhibiting the growth of melanin-pigmented cells with little or no effect upon unpigmented cells”.

**Q.** And the “in vitro effectiveness of dosage/time regimen” value (melanin-pigmented cells; 35 mM for 30 minutes)?
**A.** The value was “effective in vitro for inhibiting the growth of melanin-pigmented cells with little or no effect upon unpigmented cells”.

**Q.** What about the inhibition at 13800 µM (L929 fibroblast [2]; [15]) of the same compound?
**A.** The inhibition at 13800 µM was 14%.

**Q.** For CCN1CCOCC1 [N--ethylmorpholine, reference compound], which inhibition at 13800 µM (S91 melanoma [1]; [14]) is on record?
**A.** The inhibition at 13800 µM was 0%.

**Q.** What about the inhibition at 13800 µM (L929 fibroblast [2]; [15]) of the same compound?
**A.** Its inhibition at 13800 µM is 0%.

**Q.** With CN1CCOCC1 [N--methylmorpholine, reference compound] as the compound, how does the inhibition at 13800 µM (S91 melanoma [1]; [14]) read?
**A.** Its inhibition at 13800 µM is 0%.

**Q.** And the inhibition at 13800 µM (L929 fibroblast [2]; [15])?
**A.** Its inhibition at 13800 µM is 0%.

**Q.** For c1ccncc1 [Pyridine, reference compound], which inhibition at 13800 µM (S91 melanoma [1]; S91, 1 h) is on record?
**A.** Its inhibition at 13800 µM is 0%.

**Q.** And the inhibition at 13800 µM (L929 fibroblast [2]; L929, 1 h)?
**A.** Its inhibition at 13800 µM is 0%.

**Q.** Which inhibition at 13800 µM (S91 melanoma [1]; [14]) does the source give for C1CNCCN1 [piperazine] here?
**A.** The inhibition at 13800 µM was 70%.

**Q.** What about the inhibition at 13800 µM (HFH-LP [3]; Mus musculus, 13.8 mM for 1.5 hr, mean ± S.E., 6 replicates, read-out: Effect on Growth Rate (inhibition), HFH-LP) of the same compound?
**A.** Its inhibition at 13800 µM is 24 ± 9%.

**Q.** And the “inhibition of pigmented cell line HFH-LP (in words)” value (HFH-LP [3]; not as effective as morpholine at the dosage tested)?
**A.** Its value is “selectively inhibitory to the pigmented cell line HFH-LP, although not as effective as morpholine”.

**Q.** What about the cytotoxicity at 13800 µM (HFH-LP [4]) of the same compound?
**A.** Its cytotoxicity at 13800 µM is -44 ± 4%.

**Q.** And the inhibition at 13800 µM (NP [5])?
**A.** The inhibition at 13800 µM was 0%.

**Q.** And the “in vitro effectiveness of dosage/time regimen” value (melanin-pigmented cells; 13.8 mM for 1 hour)?
**A.** Its value is “effective in vitro for inhibiting the growth of melanin-pigmented cells with little or no effect upon unpigmented cells”.

**Q.** And the cytotoxicity at 24 h, 13800 µM (in vitro)?
**A.** Its cytotoxicity at 24 h, 13800 µM is -101%.

**Q.** What about the inhibition at 13800 µM (L929 fibroblast [2]; [15]) of the same compound?
**A.** Its inhibition at 13800 µM is 0%.

**Q.** What about the cytotoxicity at 13800 µM [6] of the same compound?
**A.** The cytotoxicity at 13800 µM was 46 ± 5%.

**Q.** Which inhibition at 500 µM (HFH-HP) does the source give for Cn1c(=O)c2[nH]cnc2n(C)c1=O [theophylline, reference compound] here?
**A.** Its inhibition at 500 µM is 40%.

**Q.** What about the inhibition at 500 µM (BHK) of the same compound?
**A.** Its inhibition at 500 µM is 20%.

**Q.** And the “effect of theophylline pretreatment on unpigmented cells” value [7]?
**A.** The value was “remained unaffected”.

**Q.** What about the sensitization to morpholine (RPMI-1641 [8]) of the same compound?
**A.** The sensitization to morpholine was “sensitized the lightly pigmented RPMI 1641 cell line to morpholine”.

**Q.** What about the “growth rate of the cells” value (HFH-LP and HFH-HP) of the same compound?
**A.** Its value is “decreased”.

**Q.** What about the “pigmentation of the treated cells” value (HFH-LP and HFH-HP) of the same compound?
**A.** The value was “visible increase in pigmentation”.

**Q.** And the inhibition at 500 µM (HFH-LP [9])?
**A.** Its inhibition at 500 µM is 35%.

**Q.** And the inhibition at 500 µM (L929)?
**A.** Its inhibition at 500 µM is -87%.

**Q.** And the inhibition at 500 µM (NP [10])?
**A.** The inhibition at 500 µM was 11%.

**Q.** What about the inhibition at 500 µM (RPMI-1641 [11]) of the same compound?
**A.** The inhibition at 500 µM was 35%.

**Q.** What about the growth rate (RPMI 1946 cells) of the same compound?
**A.** Its growth rate is “similarly affected”.

**Q.** What about the pigmentation (RPMI 1946 cells) of the same compound?
**A.** The pigmentation was “no visible change in pigmentation”.

**Q.** With “piperidino 1,2-propanediol [piperidino1,2-propanediol]” as the compound, how does the “Percent Inhibition, S91 melanoma” value (S91 melanoma [1]; 1 Hour Exposure to 13.8 mM) read?
**A.** The value was 46%.

**Q.** What about the “in vitro effectiveness of dosage/time regimen” value (melanin-pigmented cells; 13.8 mM for 1 hour) of the same compound?
**A.** The value was “effective in vitro for inhibiting the growth of melanin-pigmented cells with little or no effect upon unpigmented cells”.

**Q.** What about the “in vitro effectiveness of dosage/time regimen” value (melanin-pigmented cells; 35 mM for 30 minutes) of the same compound?
**A.** The value was “effective in vitro for inhibiting the growth of melanin-pigmented cells with little or no effect upon unpigmented cells”.

**Q.** What about the “% inhibition, L929 fibroblast” value (L929 fibroblast [12]; 13.8 mM) of the same compound?
**A.** Its value is 0%.

**Q.** And the “% inhibition, L929 fibroblast” value (L929 fibroblast [12]; 34.5 mM)?
**A.** The value was 7%.

**Q.** And the “% inhibition, L929 fibroblast” value (L929 fibroblast [12]; 69 mM)?
**A.** Its value is 10%.

**Q.** What about the “% inhibition, L929 fibroblast” value (L929 fibroblast [12]; 138 mM) of the same compound?
**A.** Its value is 19%.

**Q.** And the “% inhibition, S91 melanoma” value (S91 melanoma [13]; 13.8 mM)?
**A.** Its value is 16%.

**Q.** And the “% inhibition, S91 melanoma” value (S91 melanoma [13]; 34.5 mM)?
**A.** The value was 44%.

**Q.** And the “% inhibition, S91 melanoma” value (S91 melanoma [13]; 69 mM)?
**A.** The value was 81%.

**Q.** And the “% inhibition, S91 melanoma” value (S91 melanoma [13]; 138 mM)?
**A.** Its value is 91%.

**Q.** What about the “Percent Inhibition, L929 fibroblast” value (L929 fibroblast [2]; 1 Hour Exposure to 13.8 mM) of the same compound?
**A.** Its value is 1%.
